PMC12281424, “A Rac-specific competitive inhibitor of guanine nucleotide binding reduces metastasis in triple-negative breast cancer” (Cell Reports Medicine, 2025)

Columns and labels:
CDK7/cyclinH/MAT1(h) = CDK7/cyclinH/MAT1(h) (Homo sapiens, UniProt P50613); experiment: Kinase Profiler; assay type: biochemical
Method: (§1) Blood cell counts, kinase profiler, safety screen, bacterial cytotoxicity, Ames, micronucleus assays were performed by the company Eurofins (France). The kinase profiler was performed by the company Eurofins (Discovery, Panlab and Cerep).

Aurora-B(h) = Aurora-B(h) (Homo sapiens, UniProt Q96GD4); experiment: Kinase Profiler; assay type: biochemical
Method: as §1

[1] = In vivo pharmacokinetics and tissue distribution; design: species or system mouse; settings: 25 mg/kg i.p.
Method: A41 was administrated intraperitoneally (25 mg/kg, aqueous solution of A41 in 5% DMSO, 50% PEG) in 2 months old C57Bl/6 after 4 h of fasting. After 5, 30, 60, 120 and 360 minutes following injection, mice (n = 3 per kinetic time) were sacrificed and tissues (blood, heart, lung, liver, kidney and brain) were collected. Control mice (n = 5) were used to get blank tissues for mass spectrometry analyses. Blood was collected by cardiac puncture into tubes containing 10% EDTA. Immediately after blood collection, plasma was separated by centrifugation for 5 min at 4 °C (2,000 × g). Solid tissues were rapidly excised and snap frozen in liquid nitrogen before to be disrupted and homogenized in PBS (1/10; wt/vol) using TissueLyser II (Quiagen). A41 concentrations were determined in mouse plasma and tissues by liquid chromatography-tandem mass spectrometry (LC-MS/MS). All solvents were LC-MS grade and purchased from Biosolve (Valkenswaard, Netherlands). A41 10× standard solutions were prepared and serially diluted in acetonitrile to obtain 8 standard solutions ranging 10-20,000 nmol/L. A41 10X standard solutions (5 μL or 20 μL) were added to blank plasma (45 μL) or blank tissue homogenates (180 μL), respectively, to get final concentrations ranging 1-2,000 nmol/L. Acetonitrile (5 μL or 20 μL) was added to plasma (45 μL) or tissue samples (180 μL). Tissue homogenates (standards and samples) were then centrifugated for 5 min at 5,000 × g for 5 min at 10 °C and supernatants (100 μL) were collected. Proteins were precipitated by the addition of 150 μL or 300 μL of acetonitrile containing labeled D3-A41 as internal standard (200 nmol/L) in all plasma (50 μL) and tissue supernatants (100 μL), respectively. After centrifugation (17,000 × g, 10 min, 10 °C), supernatants were collected and dried under a gentle stream of nitrogen. Dried samples were finally reconstituted with 25% acetonitrile containing 0.1% formic acid (100 μL), and injected into the LC-MS/MS system. Analyses were performed on a Xevo® TQD mass spectrometer with an electrospray (ESI) interface and an Acquity H-Class® UPLC™ device (Waters Corporation, Milford, MA, USA). Samples (10 μL) were injected onto a BEH C18 column (1.7 μm; 2.1 × 50 mm, Waters Corporation) held at 60 °C, and compounds were separated with a linear gradient of mobile phase B (acetonitrile, 0.1% formic acid) in mobile phase A (water, 0.1% formic acid) at a flow rate of 500 μL/min. […] A41 and its internal standard d3-A41 were then detected by the mass spectrometer with the ESI interface operating in the positive ion mode (capillary voltage, 3 kV; desolvatation gas (N2) flow and temperature, 900 L/h and 450 °C; source temperature, 120 °C). The multiple reaction monitoring mode was applied for MS/MS detection at the following mass-to-charge (m/z) ratio transitions: 487.1 → 153.0 and 490.2 → 156.0 for A41 and d3-A41, respectively. Cone voltage and collision energy were set at 35 V and 20 eV, respectively. Data acquisition and processing were achieved using MassLynx® and TargetLynx® softwares (version 4.1, Waters Corporation). Chromatographic peak area ratios between A41 and its internal standard constituted the detector responses. Standard solutions were used to plot calibration curves for quantification and dilution factors related to biological matrix preparations were included in calculation. The linearity was expressed by the mean r^2 which was greater than 0.995 for all matrices (linear regression, 1/x weighting, origin excluded). AUC0-6h was calculated as follow: AUC0−6h=∫06hC0e^−Ktdt=C0/K Where K = constant of elimination, and […].
Supplementary Fig. 7: A41 pharmacokinetics. (a) Molecule distribution in plasma and indicatedorgans afterintraperitonealinjectionof A41 (25 mg/kg) in mice(N=3 mice/kinetictimepoint). (b) Pharmacokinetic parametersof A41 calculated in mice after a singleintraperitonealinjection(25mg/kg). AUC = Area Under the Concentration-time curve.

MAPKAP-K3(h) = MAPKAP-K3(h) (Homo sapiens, UniProt Q16644); experiment: Kinase Profiler; assay type: biochemical
MAPKAP-K3(h), sequence (Q16644 whole entry): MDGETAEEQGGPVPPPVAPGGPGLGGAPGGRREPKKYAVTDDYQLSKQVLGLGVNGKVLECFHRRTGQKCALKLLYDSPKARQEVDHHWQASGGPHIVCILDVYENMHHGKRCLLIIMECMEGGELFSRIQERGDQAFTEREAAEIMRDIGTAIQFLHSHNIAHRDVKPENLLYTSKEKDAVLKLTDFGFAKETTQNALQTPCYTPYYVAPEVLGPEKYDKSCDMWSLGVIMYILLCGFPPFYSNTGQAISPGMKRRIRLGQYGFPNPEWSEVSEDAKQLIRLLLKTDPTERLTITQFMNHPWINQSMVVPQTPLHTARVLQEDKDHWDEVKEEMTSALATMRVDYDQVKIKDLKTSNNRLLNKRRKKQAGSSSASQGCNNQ
Method: The kinase profiler was performed by the company Eurofins (Discovery, Panlab and Cerep).

p70S6K(h) = p70S6K(h) (Homo sapiens, UniProt P23443); experiment: Kinase Profiler; assay type: biochemical
p70S6K(h), sequence (P23443 whole entry): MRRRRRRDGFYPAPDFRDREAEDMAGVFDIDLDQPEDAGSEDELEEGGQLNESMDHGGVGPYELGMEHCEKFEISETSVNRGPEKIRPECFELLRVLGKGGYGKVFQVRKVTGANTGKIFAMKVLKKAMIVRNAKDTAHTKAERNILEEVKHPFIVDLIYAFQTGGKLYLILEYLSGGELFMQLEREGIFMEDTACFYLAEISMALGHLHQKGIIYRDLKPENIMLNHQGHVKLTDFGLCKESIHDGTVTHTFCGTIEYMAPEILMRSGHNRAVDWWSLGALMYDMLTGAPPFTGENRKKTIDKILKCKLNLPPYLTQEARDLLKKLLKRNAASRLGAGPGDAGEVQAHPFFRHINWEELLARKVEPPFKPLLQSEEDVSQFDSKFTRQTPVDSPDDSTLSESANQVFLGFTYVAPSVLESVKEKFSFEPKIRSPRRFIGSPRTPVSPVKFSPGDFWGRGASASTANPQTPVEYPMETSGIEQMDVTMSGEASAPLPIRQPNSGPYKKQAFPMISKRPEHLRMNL
Method: as §1

[2] = target: Transporter, Norepinephrine (NET) (Homo sapiens, UniProt P23975); experiment: Safety screen; assay type: binding
Transporter, Norepinephrine (NET), sequence (P23975 whole entry): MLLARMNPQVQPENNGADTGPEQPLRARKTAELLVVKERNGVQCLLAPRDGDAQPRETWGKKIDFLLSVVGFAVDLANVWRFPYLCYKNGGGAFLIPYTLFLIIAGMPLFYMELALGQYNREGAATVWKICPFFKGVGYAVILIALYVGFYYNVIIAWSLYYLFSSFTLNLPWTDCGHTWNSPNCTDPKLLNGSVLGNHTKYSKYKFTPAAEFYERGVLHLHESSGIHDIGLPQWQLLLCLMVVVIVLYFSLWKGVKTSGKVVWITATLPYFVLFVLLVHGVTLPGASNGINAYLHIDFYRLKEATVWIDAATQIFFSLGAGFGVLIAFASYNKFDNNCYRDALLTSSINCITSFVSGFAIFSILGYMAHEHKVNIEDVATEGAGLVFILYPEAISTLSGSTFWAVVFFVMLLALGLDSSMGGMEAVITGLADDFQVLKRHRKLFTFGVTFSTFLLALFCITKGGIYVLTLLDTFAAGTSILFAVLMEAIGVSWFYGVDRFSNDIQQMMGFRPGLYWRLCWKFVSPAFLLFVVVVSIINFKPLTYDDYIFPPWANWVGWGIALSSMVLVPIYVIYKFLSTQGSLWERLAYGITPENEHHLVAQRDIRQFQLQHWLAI
Method: Blood cell counts, kinase profiler, safety screen, bacterial cytotoxicity, Ames, micronucleus assays were performed by the company Eurofins (France).

CDK7/cyclinH/MAT1(h), sequence (P50613 whole entry): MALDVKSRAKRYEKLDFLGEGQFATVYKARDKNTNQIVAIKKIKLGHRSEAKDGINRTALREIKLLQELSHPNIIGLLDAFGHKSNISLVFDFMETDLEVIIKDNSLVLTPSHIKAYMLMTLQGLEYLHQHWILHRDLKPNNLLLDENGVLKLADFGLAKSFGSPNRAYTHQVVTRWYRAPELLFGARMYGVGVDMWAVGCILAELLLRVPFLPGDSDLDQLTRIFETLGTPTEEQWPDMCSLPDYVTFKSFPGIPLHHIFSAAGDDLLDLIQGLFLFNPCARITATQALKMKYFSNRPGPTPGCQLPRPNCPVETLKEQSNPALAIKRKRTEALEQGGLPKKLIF
CDK7/cyclinH/MAT1(h), sequence (P51946 whole entry partner): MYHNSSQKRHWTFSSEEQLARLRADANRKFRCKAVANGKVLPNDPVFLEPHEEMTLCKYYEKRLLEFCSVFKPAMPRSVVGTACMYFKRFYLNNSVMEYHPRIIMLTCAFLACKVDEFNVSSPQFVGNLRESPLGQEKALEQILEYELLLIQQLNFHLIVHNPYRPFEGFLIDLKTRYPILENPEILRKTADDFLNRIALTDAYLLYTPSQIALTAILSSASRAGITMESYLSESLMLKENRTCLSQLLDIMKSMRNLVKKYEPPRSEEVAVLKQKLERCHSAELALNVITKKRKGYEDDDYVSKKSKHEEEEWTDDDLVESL
CDK7/cyclinH/MAT1(h), sequence (P51948 whole entry partner): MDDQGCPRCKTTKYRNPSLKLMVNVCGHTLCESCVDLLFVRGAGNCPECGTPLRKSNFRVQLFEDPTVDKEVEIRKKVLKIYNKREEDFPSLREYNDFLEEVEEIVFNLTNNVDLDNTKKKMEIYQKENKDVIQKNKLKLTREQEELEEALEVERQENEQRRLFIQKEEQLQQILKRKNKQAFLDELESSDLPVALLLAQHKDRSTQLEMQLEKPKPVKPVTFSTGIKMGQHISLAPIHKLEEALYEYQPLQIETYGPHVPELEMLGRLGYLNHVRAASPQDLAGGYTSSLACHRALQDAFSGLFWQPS
Aurora-B(h), sequence (Q96GD4 whole entry): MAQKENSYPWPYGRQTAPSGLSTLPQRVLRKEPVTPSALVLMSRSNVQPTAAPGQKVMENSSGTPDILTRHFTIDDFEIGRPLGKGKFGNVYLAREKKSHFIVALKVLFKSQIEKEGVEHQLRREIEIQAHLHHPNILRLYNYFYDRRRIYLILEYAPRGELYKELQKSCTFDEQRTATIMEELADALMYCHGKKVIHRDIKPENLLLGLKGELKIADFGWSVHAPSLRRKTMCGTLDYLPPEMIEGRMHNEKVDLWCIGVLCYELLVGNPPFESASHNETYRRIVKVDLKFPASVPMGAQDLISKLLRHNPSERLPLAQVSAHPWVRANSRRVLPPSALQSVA

Structure (SMILES): COc1ccc(OC)c(NS(=O)(=O)c2ccc(NC(=O)CCSc3ccc(C)cc3)cc2)c1 [Compound A41]
- Activity(%) (CDK7/cyclinH/MAT1(h)): 106%
- Activity(%) (Aurora-B(h)): 86%
- C0 [1]: 4.335 µg/mL
- blood-brain barrier crossing [1]: could not cross the blood-brain barrier
- t ½ [1]: 97.764 min
- time over which plasma concentration declined [1]: 2 to 3 h
- tissue concentration, brain [1]: extremely low concentration
- tissue concentration, kidney [1]: highest concentration
- tissue distribution, liver, heart, and lungs [1]: detected
- AUC0-6h ([1]; parameter list): 14.3 µg·h/mL
- AUC0-6h ([1]; plasma): 14.3 (µg/ mL)xh
- Cmax (peak plasma concentration) ([1]; plasma): 15.056 ± 0.5 µg/mL
- Activity(%) (MAPKAP-K3(h)): 112%
- Activity(%) (p70S6K(h)): 103%
- % inh. [2]: 36%
